± gives the expanded uncertainty stated by the source.
Settings: Liquid

| SMILES | vapor or sublimation pressure (330.05 K) [kPa] | vapor or sublimation pressure (352.65 K) [kPa] |
| --- | --- | --- |
| COC(C)=O [methyl ethanoate] | 101.3 ± 3.6 |  |
| CCC(=O)OC [methyl propanoate] |  | 101.3 ± 4 |
